Assay results as given in patent US11091591B2, “Carbohydrate ligands that bind to antibodies against glycoepitopes of glycosphingolipids” (UNIVERSITÄT BASEL, priority 2015, dated 2021).
Entries after “also recorded” stand apart in the source; their conditions may differ. Values belong to the substance of their own block, whether it stands above or below them.

Assays:
[1] = target: anti-GD1b IgG antibodies of neuropathy patient serum; assay: Competitive binding ELISA (GanglioCombi), GD1b-coated wells, patient serum IgG; parameters: species or system human; conditions: serum P22 (IgG), dilution 1:50; table prints GD1a (IgG)
Experimental: (§1) The synthesized carbohydrate polymers 6 (GM1a epitope), 26 (GD1b epitope), and 34 (GT1a epitope) were tested in the GanglioCombi(-Light) ELISA and/or, in case of compound 6, the anti-GM1 ELISA (all kits from Bühlmann Laboratories, Schönenbuch, Switzerland). The 96 well microtiter plates coated with purified gangliosides from bovine cauda equina were washed two times with washing buffer (300 μl/well) before adding the carbohydrate polymers in eight different concentrations, 25 μl/well. The patient sera containing anti-ganglioside IgG or IgM antibodies were added in the appropriate dilutions, 25 μl/well (2× concentrated), to obtain a total of 50 μl volume per well. […] Finally, a stop solution (0.25 M sulfuric acid) was added (100 μl/well) and the degree of colorimetric reaction was determined by absorption measurement at 450 nm with a microplate reader (Spectramax 190, Molecular Devices, California, USA).
(§2) As indicated, the synthesized carbohydrate polymers 6 (GM1a epitope), 26 (GD1b epitope), and 34 (GT1a epitope) were tested in the GanglioCombi(-Light) ELISA and/or, in case of compound 6, the anti-GM1 ELISA (all kits from Bühlmann Laboratories, Schönenbuch, Switzerland). […] After a washing step ganglioside-bound antibodies (IgM/IgG) were detected with horseradish peroxidase labeled anti-human IgM or anti-human IgG antibodies, followed by a colorimetric reaction. […]

[2] = system: anti-GM1a IgM antibodies of neuropathy patient sera; assay: Competitive binding ELISA (GanglioCombi/anti-GM1), GM1a-coated wells, patient sera IgM; parameters: species or system human
Experimental: as §1, §2

[3] = system: anti-GM1a IgG antibodies of neuropathy patient sera; assay: Competitive binding ELISA (GanglioCombi/anti-GM1), GM1a-coated wells, patient sera IgG; parameters: species or system human
Experimental: as §1, §2

[4] = system: anti-GQ1b IgG antibodies of neuropathy patient sera; assay: Competitive binding ELISA (GanglioCombi), GQ1b-coated wells, patient sera IgG; parameters: species or system human
Experimental: The synthesized carbohydrate polymers 6 (GM1a epitope), 26 (GD1b epitope), and 34 (GT1a epitope) were tested in the GanglioCombi(-Light) ELISA and/or, in case of compound 6, the anti-GM1 ELISA (all kits from Bühlmann Laboratories, Schönenbuch, Switzerland). The 96 well microtiter plates coated with purified gangliosides from bovine cauda equina were washed two times with washing buffer (300 μl/well) before adding the carbohydrate polymers in eight different concentrations, 25 μl/well. The patient sera containing anti-ganglioside IgG or IgM antibodies were added in the appropriate dilutions, 25 μl/well (2× concentrated), to obtain a total of 50 μl volume per well. The plate was covered with a plate sealer and incubated for 2 h at 4-8° C. The wells were washed three times with wash buffer (300 μl/well) before either the anti-human IgM antibody-horseradish peroxidase conjugate or the anti-human IgG antibody-horseradish peroxidase conjugate was added (100 μl/well). The plate was incubated for 2 h at 4-8° C. […] Finally, a stop solution (0.25 M sulfuric acid) was added (100 μl/well) and the degree of colorimetric reaction was determined by absorption measurement at 450 nm with a microplate reader (Spectramax 190, Molecular Devices, California, USA).
As indicated, the synthesized carbohydrate polymers 6 (GM1a epitope), 26 (GD1b epitope), and 34 (GT1a epitope) were tested in the GanglioCombi(-Light) ELISA and/or, in case of compound 6, the anti-GM1 ELISA (all kits from Bühlmann Laboratories, Schönenbuch, Switzerland). […] After a washing step ganglioside-bound antibodies (IgM/IgG) were detected with horseradish peroxidase labeled anti-human IgM or anti-human IgG antibodies, followed by a colorimetric reaction. Successful competition of the compounds with gangliosides led to a decrease in measured OD450 nm, (optical density), because they block the binding sites of anti-ganglioside antibodies, preventing their binding to immobilized gangliosides. […] IgG and IgM antibody titers were determined for each serum in preliminary experiments. […]

[5] = system: anti-HNK-1 (anti-MAG) IgM antibodies; assay: Immunological mouse model for anti-MAG neuropathy; assay type: in vivo; conditions: immunized BALB/c mice, 10 mg/kg intravenous, up to 168 h (seven days) after administration
Experimental: (§3) The synthesized carbohydrate polymer 86 (HNK-1 epitope mimetic 58) was tested in the anti-MAG ELISA (kit from Bühlmann Laboratories, Schönenbuch, Switzerland). The assay protocol was performed according to the one described above for the GanglioCombi(-Light) ELISA. To determine the in vitro IC50 of polymer 86, the assay was performed with co-incubation of polymer (25 μl/well) and a mouse monoclonal anti-HNK-1 (anti-MAG) IgM antibody (25 μl/well) at a final dilution of 1:1000. To determine the in vivo efficacy of polymer 86, the assay was performed by incubation of mouse plasma diluted 1:100 (50 μl/well). Both, the mouse monoclonal anti-HNK-1 (anti-MAG) IgM and anti-HNK-1 (anti-MAG) IgM in plasma of immunized BALB/c mice (pre- and post-treatment) were detected with goat anti-mouse IgM HRP conjugate (Sigma Aldrich, A8786) diluted 1:10′000.
Six gender matched BALB/c wild type mice at the age of 6 weeks were injected subcutaneously at multiple sites on the lower back with a total of 100 μg of the glycosphingolipids SGPG and SGLPG purified from bovine cauda equina (both glycolipids contain the HNK-1 carbohydrate epitope). The isolation of glycolipids was performed according to a protocol described by Burger et al. (Journal of Immunological Methods 1991, 140, 31-36). […] Mouse plasma samples were analyzed by the above described anti-MAG ELISA.

[6] = system: mouse monoclonal anti-HNK-1 (anti-MAG) IgM antibody; assay: Competitive binding anti-MAG ELISA, MAG-coated wells
Experimental: as §3

IC50 [1]: 313 µM
Substance: GD1b Polymer [Compound 26]

IC50 ([2]; serum P3, GM1a (IgM), dilution 1:50): 375 nM | IC50 ([2]; serum P4, GM1a (IgM), dilution 1:400): 0.0594 nM | IC50 ([3]; serum P21, GM1a (IgG), dilution 1:1'300): 0.219 µM | IC50 ([3]; serum PP IgG Pos., GM1a (IgG), dilution 1:1'200): 28 µM
Substance: GM1a Polymer [Compound 6]

IC50 ([4]; serum EK-GCO 1803, GQ1b/GT1a (IgG), dilution 1:300): 12.5 µM | IC50 ([4]; serum P23, GQ1b/GT1a (IgG), dilution 1:50): 348 µM
Substance: GT1a Polymer [Polymer 34]
neutralization of patient sera directed against GQ1b ([4]; sera EK-GCO 1803 (IgG) and P23 (IgG)): neutralized

inhibition of binding of mouse monoclonal anti-HNK-1 IgM to the HNK-1 epitope on MAG [6]: nanomolar concentrations | IC50 ([6]; mouse anti-HNK-1 antibody, HNK-1 (IgM), final dilution 1:1000): 0.0513 ± 0.0442 µM
Substance: HNK-1 Polymer [Compound 86]
reduction of anti-HNK-1 (anti-MAG) IgM antibody levels [5]: significantly reduced; also recorded: significant reduction
